Legend:
mice (C57BL/6J mice) = experiment: Evaluation of wake-promoting effects by EEG and EMG in mice; format: in vivo; conditions: 30 mg/kg, p.o., at zeitgeber time 5; time spent in wakefulness for 2 h after administration; male mice
Method: The wake-promoting effects were evaluated by measuring the electroencephalogram (EEG) and electromyogram (EMG) in […] mice (C57BL/6Jmice, CLEA Japan Inc., Tokyo, Japan). Under pentobarbital sodium anesthesia (50 mg/kg, intraperitoneal, Somnopentyl®, Kyoritsu Seiyaku, Tokyo, Japan), […] male […] mice were surgically implanted with EEG electrode and EMG electrode. Bilateral EEG leads (Biotex, Kyoto, Japan) were stereotaxically positioned at the parietal area and secured to the cranium with stainless-steel screws in contact with the dura. Bilateral EMG leads (Biotex) were implanted into the back cervical muscles. After at least a 1-week recovery period in home cages, the […] mice were habituated to the recording chamber located in an electrically shielded soundproof room. After habituated, the cortical EEG and EMG signals were recorded using VitalRecorder® (Kissei Comtec Co., Ltd., Nagano, Japan). The signals were automatically scored in 4 sec epochs by a sleep scoring system (SleepSign®, Kissei Comtec Co., Ltd.). Test compound (30 mg/kg, Table 3X-1) dissolved in a mixed solution containing 10% DMSO, 10% Cremophor EL, 20% PEG400 and 60% H2O, or vehicle (i.e., a mixed solution containing 10% DMSO, 10% Cremophor EL, 20% PEG400 and 60% H2O) was administered orally (p.o.) to the […] mice at zeitgeber time 5 in a volume of 10 mL/kg. The EEG and EMG recordings were performed for 2 h after the compound administration. The time spent in wakefulness for 2 h after administration (% of vehicle treatment) was calculated by using SleepSign.

[1] = biological target: T1, human orexin type 2 receptor (Homo sapiens, UniProt O43614); experiment: Measurement of orexin type 2 receptor agonist activity (calcium fluorescence, Fluo-4 AM, FDSS) in CHO cells forcibly expressing human OX2 receptor; format: cell-based; conditions: test compound 3 μM, DMSO = 0%, orexin A (human) 10 nM = 100%
T1 construct: expressed in transfected cells
T1 sequence (O43614 1-444): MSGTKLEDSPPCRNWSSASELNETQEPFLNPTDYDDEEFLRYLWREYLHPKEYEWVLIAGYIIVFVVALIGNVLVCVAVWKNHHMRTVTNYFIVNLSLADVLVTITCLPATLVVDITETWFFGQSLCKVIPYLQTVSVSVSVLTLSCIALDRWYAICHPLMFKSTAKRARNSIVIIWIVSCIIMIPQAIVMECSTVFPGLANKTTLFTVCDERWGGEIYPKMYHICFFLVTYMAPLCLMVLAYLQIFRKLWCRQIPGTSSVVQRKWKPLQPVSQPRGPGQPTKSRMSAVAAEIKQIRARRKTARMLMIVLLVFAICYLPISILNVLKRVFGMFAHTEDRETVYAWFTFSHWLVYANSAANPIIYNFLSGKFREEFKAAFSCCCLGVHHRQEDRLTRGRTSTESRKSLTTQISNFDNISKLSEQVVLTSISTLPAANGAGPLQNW
Method in brief: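 CHO-dhfr cells stably expressing human OX2 receptor, loaded with Fluo-4 AM plus probenecid for 30 min at 37 °C, then 30 min at room temperature. Calcium fluorescence read for about 2 min 40 s after compound addition. Activity (%) scaled between DMSO (0%) and 10 nM human orexin A (100%).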

| SMILES | 0X2R agonist activity (3 μM, %) [1] [%] | Wakefulness time (% of vehicle treatment) (Mean, n = 3) (mice (C57BL/6J mice)) |
| --- | --- | --- |
| CC(C)n1cnc2c(c1=O)[C@@H](Cc1cccc(-c3ccccc3)c1F)[C@@H](NS(=O)(=O)C1(F)CC1)CC2 [Example 180, 1-fluoro-N-[(5R,6S)-5-[(2-fluoro[1,1′-biphenyl]-3-yl)methyl]-4-oxo-3-(propan-2-yl)-3,4,5,6,7,8-hexahydroquinazolin-6-yl]cyclopropane-1-sulfonamide] | 94 | 197.28 % of vehicle treatment |
| CC(C)n1cnc2c(c1=O)[C@@H](Cc1cccc(-c3cc(F)cc(F)c3)c1F)[C@@H](NS(=O)(=O)C1CC1)CC2 [Example 195, N-{(5R,6S)-4-oxo-3-(propan-2-yl)-5-[(2,3′,5′-trifluoro[1,1′-biphenyl]-3-yl)methyl]-3,4,5,6,7,8-hexahydroquinazolin-6-yl}cyclopropanesulfonamide] | 94 | 183.08 % of vehicle treatment |
| Cc1nc2c(c(=O)n1C(C)C)[C@@H](Cc1cccc(-c3ccccc3)c1)[C@@H](NS(C)(=O)=O)CC2 (racemic) [Example 70, rac-N-{(5R,6S)-5-[([1,1′-biphenyl]-3-yl)methyl]-2-methyl-4-oxo-3-(propan-2-yl)-3,4,5,6,7,8-hexahydroquinazolin-6-yl}methanesulfonamide] | 97 |  |
| CCS(=O)(=O)NC1CCc2c(C)nn(C)c(=O)c2C1Cc1cccc(-c2ccccc2)c1 (racemic) [Example 97, rac-N-{(5R,6S)-5-[([1,1′-biphenyl]-3-yl)methyl]-1,3-dimethyl-4-oxo-3,4,5,6,7,8-hexahydrophthlalazin-6-yl}ethanesulfonamide] | 82 |  |
| Cn1cc2n(c1=O)[C@@H](Cc1cccc(-c3cc(F)cc(F)c3)c1)[C@@H](NS(C)(=O)=O)CC2 (racemic) [Example 201, rac-N-{(5S,6S)-5-[(3′,5′-difluoro[1,1′-biphenyl]-3-yl)methyl]-2-methyl-3-oxo-2,3,5,6,7,8-hexahydroimidazo[1,5-a]pyridin-6-yl}methanesulfonamide] | 91 |  |
| CC(C)n1cnc2c(c1=O)[C@@H](Cc1cccc(-c3ccccc3)c1)[C@@H](NS(=O)(=O)CF)CC2 (relative stereo) [Example 145, rel-N-[(5R,6S)-5-[([1,1′-biphenyl]-3-yl)methyl]-4-oxo-3-(propan-2-yl)-3,4,5,6,7,8-hexahydroquinazolin-6-yl]-1-fluoromethanesulfonamide] | 92 |  |
| Cc1ccc2n(c1=O)C(Cc1cccc(-c3cccc(F)c3)c1F)C(NC(=O)[C@@H]1CCCO1)CC2 (stereo in doubt) [Example 54, (2S)-N-{(3S*,4S*)-4-[(2,3′-difluoro[1,1′-biphenyl]-3-yl)methyl]-7-methyl-6-oxo-1,3,4,6-tetrahydro-2H-quinolizin-3-yl}oxolane-2-carboxamide] | 97 |  |

Further lines, with some results ahead:

| 0X2R agonist activity (3 μM, %) [1] [%] | SMILES | Wakefulness time (% of vehicle treatment) (Mean, n = 3) (mice (C57BL/6J mice)) |
| --- | --- | --- |
| 95 | CC(C)n1cnc2c(c1=O)[C@@H](Cc1cccc(-c3cccc(F)c3)c1F)[C@@H](NS(=O)(=O)C1CC1)CC2 [Example 172, N-[(5R,6S)-5-[(2,3′-difluoro[1,1′-biphenyl]-3-yl)methyl]-4-oxo-3-(propan-2-yl)-3,4,5,6,7,8-hexahydroquinazolin-6-yl]cyclopropanesulfonamide] | 201.32 % of vehicle treatment |
| 93 | CC(C)n1cnc2c(c1=O)[C@@H](Cc1cccc(-c3ccccc3)c1F)[C@@H](NS(=O)(=O)C1CC1)CC2 [Example 176, N-[(5R,6S)-5-[(2-fluoro[1,1′-biphenyl]-3-yl)methyl]-4-oxo-3-(propan-2-yl)-3,4,5,6,7,8-hexahydroquinazolin-6-yl]cyclopropanesulfonamide] | 204.27 % of vehicle treatment |
| 81 | Cn1cc2n(c1=O)C(Cc1cccc(-c3ccccc3)c1)C(NC(=O)[C@@H]1CCCO1)CC2 (mixture of isomers) [Example 205, (2S)-N-{(5SR,6SR)-5-[([1,1′-biphenyl]-3-yl)methyl]-2-methyl-3-oxo-2,3,5,6,7,8-hexahydroimidazo[1,5-a]pyridin-6-yl}oxolane-2-carboxamide] |  |
| 107 | CC(C)n1cnc2c(c1=O)[C@@H](Cc1cccc(-c3cccc(F)c3)c1)[C@@H](NS(=O)(=O)C1CC1)CC2 [Example 188, N-[(5R,6S)-5-[(3′-fluoro[1,1′-biphenyl]-3-yl)methyl]-4-oxo-3-(propan-2-yl)-3,4,5,6,7,8-hexahydroquinazolin-6-yl]cyclopropanesulfonamide] |  |
